Among the test systems are DU-145; LXFL 529; MCF7; SR; SF-295; Malme-3M; HT-29; SF-539; LOX IMVI; SNB-19; SK-OV-3; MDA-MB-231; HCT-15; A498; CAKI-1; RXF 393; SK-MEL-2; MDA-MB-435; HCT-116; MDA-N.
What all share (experiment): NCI tumour cell line growth inhibition, 48 h

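Test compounds were applied to cells in 96-well plates for 48 hours at 5 doses. GI50 = concentration required for 50% inhibition of growth.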 The source made the active and inactive calls. No stated cut-off is given here; in the data, active = GI50 up to about 1.1 µM and inactive = higher.

Take `COC(=O)c1ccccc1NC(=O)C(=O)CC(=O)c1ccccc1NC1=CC(=O)C(=O)c2ccccc21`: the GI50 was 23200 nM (inactive) in the experiment on DU-145; 5090 nM (inactive) with LXFL 529; 8870 nM (inactive) in the experiment with MCF7; 2670 nM (inactive) in the experiment on SR; 15600 nM (inactive) in the experiment with SF-295; 3020 nM (inactive) in the experiment with Malme-3M. The GI50 was 44500 nM (inactive) in the experiment on HT-29; 18600 nM (inactive) with SF-539; 1680 nM (inactive) in the experiment on LOX IMVI; 20200 nM (inactive) with SNB-19; 32500 nM (inactive) in the experiment with SK-OV-3; 3400 nM (inactive) in the experiment on MDA-MB-231. In addition, the GI50 was 5650 nM in the experiment with HCT-15; > 56200 nM (inactive) in the experiment with A498; 23800 nM (inactive) with CAKI-1; 15600 nM (inactive) in the experiment with RXF 393; 12500 nM (inactive) in the experiment on SK-MEL-2; 4150 nM (inactive) with MDA-MB-435. In addition, the GI50 in the experiment on HCT-116 is 4670 nM (inactive); in the experiment on MDA-N, 1710 nM (inactive).

Take `CCOCC(=O)N[C@H]1CCc2cc(OC)c(OC)c(OC)c2-c2ccc(OC)c(=O)cc21`: the GI50 in the experiment with DU-145 was 21.3 nM (active); with LXFL 529, 24 nM (active); in the experiment on MCF7, 20.7 nM (active); with SR it was < 20.6 nM (active); in the experiment on SF-295 it was 20.6 nM (active); with Malme-3M it was 22.9 nM (active). The GI50 in the experiment on HT-29 was 14.6 nM (active); with SF-539, 14.8 nM (active); in the experiment on LOX IMVI it was < 12.5 nM (active); in the experiment with SNB-19, 164 nM (active); in the experiment with SK-OV-3 it was 111 nM (active); in the experiment on MDA-MB-231, < 14.5 nM (active). The GI50 was 86.5 nM in the experiment on HCT-15; 22.9 nM (active) in the experiment on A498; 57.7 nM (active) with CAKI-1; 81.1 nM (active) with RXF 393; 17.4 nM (active) with SK-MEL-2; 12.3 nM (active) with MDA-MB-435. For the same molecule, the GI50 in the experiment on HCT-116 is 14 nM (active); in the experiment with MDA-N, 12.2 nM (active).

Source of the values: ChEMBL document CHEMBL1201862, “PubChem BioAssay data set” (2004).
